Measured values as given in patent publication US20240376151A1, “STAPLED PEPTIDES AND METHODS THEREOF” (FOG PHARMACEUTICALS, INC., priority 2022, published 2024).
Where two headings read alike, the source gives them in different places. One block for each molecule: values may come before it. Numbered stars: 1 amine (or outer) side, 2 acyl side, 3 side chain; on linkers, the order of the positions; unused ones are H or OH. Bridge positions count the residues as written; N and C are the ends. Peptide text beside a SMILES is read from it. * marks the point of attachment. Phenylene(1,4-NHCOCH2)2 = O=C(C[*:1])Nc1ccc(NC(=O)C[*:2])cc1; 5FAM = O=C1OC2(c3ccc(O)cc3Oc3cc(O)ccc32)c2ccc(C(=O)*)cc21

Experiments:
β-catenin:MDM4 complex = target: T1, β-catenin:MDM4 complex (Homo sapiens, UniProt O15151+P35222, C17S); experiment: FP analysis of the β-catenin:MDM4 complex; assay type: biochemical; settings: direct FP assay
T1 construct: 6×His-yBBr-TEV (N); 6×His-yBBr-3C (N, cleaved yes); made in house; host or cells: E. coli BL21 (DE3) pLysS (beta-catenin); E. coli BL21 (DE3) (MDM4)
T1 sequence (P35222 134-665): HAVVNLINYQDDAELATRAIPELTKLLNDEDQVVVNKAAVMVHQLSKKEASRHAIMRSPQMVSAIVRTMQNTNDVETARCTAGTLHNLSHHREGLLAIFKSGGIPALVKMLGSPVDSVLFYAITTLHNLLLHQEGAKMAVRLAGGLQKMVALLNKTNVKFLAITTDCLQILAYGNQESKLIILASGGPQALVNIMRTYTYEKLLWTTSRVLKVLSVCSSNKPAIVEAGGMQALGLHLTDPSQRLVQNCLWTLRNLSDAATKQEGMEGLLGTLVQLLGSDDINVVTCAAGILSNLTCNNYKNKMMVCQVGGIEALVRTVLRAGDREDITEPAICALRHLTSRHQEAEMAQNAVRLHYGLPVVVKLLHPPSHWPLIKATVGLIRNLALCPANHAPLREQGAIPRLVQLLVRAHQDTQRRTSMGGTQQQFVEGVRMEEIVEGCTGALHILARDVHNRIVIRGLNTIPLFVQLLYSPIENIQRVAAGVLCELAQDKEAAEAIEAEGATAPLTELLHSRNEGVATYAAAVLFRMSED
T1 sequence (O15151 14-111 C17S): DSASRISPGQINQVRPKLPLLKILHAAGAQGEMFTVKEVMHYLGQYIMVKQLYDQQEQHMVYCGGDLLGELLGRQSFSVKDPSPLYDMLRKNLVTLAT

PD-L1 = PD-L1 (Homo sapiens, UniProt Q9NZQ7)
Sequence of PD-L1 (Q9NZQ7 18-239): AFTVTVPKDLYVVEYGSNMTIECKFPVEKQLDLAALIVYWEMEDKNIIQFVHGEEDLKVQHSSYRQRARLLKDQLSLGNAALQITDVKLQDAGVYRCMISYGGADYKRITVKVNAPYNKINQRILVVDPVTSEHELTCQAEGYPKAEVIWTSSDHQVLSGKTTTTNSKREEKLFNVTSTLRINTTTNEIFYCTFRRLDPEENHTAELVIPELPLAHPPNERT

beta-catenin = target: T2, beta-catenin (Homo sapiens, UniProt P35222); experiment: KD (μM, SPR)
T2 construct: 10 nM full-length β-catenin (Uniprot ID P35222); 6×His-thrombin-T7-TEV (N); made in house; host or cells: E. coli BL21 (DE3) pLysS
T2 sequence (P35222 2-781 limits assumed): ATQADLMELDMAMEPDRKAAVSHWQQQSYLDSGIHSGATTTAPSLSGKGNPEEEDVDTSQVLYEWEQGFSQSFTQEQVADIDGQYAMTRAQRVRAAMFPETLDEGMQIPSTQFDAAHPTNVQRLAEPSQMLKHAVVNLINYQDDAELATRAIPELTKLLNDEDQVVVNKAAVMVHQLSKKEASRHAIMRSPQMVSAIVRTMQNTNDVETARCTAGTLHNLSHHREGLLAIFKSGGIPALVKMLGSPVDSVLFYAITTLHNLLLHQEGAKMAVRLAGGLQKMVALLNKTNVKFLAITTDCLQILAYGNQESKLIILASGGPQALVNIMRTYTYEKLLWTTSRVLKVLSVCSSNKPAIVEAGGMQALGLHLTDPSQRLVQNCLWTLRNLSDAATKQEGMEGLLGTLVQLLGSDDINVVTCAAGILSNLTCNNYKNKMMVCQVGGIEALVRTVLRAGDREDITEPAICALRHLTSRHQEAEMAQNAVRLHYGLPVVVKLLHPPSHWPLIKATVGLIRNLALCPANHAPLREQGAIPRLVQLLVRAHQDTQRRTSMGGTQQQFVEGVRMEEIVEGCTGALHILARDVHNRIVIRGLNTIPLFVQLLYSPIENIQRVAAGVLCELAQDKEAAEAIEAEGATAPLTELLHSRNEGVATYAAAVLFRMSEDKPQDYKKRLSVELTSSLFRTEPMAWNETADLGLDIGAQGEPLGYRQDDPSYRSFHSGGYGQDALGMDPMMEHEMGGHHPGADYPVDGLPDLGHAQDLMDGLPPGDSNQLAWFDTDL

β-catenin:MDM2 complex = target: T3, β-catenin:MDM2 complex (Homo sapiens, UniProt P35222+Q00987); experiment: FP analysis of the β-catenin:MDM2 complex; assay type: biochemical; settings: read-out: EC50 of cooperative interaction between MDM2 and the Armadillo domain of β-catenin
T3 construct: 6×His-yBBr-TEV (N); 6×His-TEV (N, cleaved yes); made in house; host or cells: E. coli BL21 (DE3) pLysS (beta-catenin); E. coli BL21 (DE3) (MDM2)
T3 sequence (Q00987 17-111 limits assumed, one chain of several): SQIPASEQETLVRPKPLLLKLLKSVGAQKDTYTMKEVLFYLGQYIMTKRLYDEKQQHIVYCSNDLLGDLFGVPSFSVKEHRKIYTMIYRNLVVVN

Expi293 cells [1] = experiment: CellTiter-Glo cell health (ATP levels) during cell association assay; assay type: cell-based; settings: reflective of cell health, luminescence Tfinal (22 hours) / Tinitial
Expi293 cells [2] = experiment: Measurement of the Cell Association of Helicons (mass spectrometry quantification in cells after treatment and wash); assay type: cell-based; settings: percentage of Helicons in cells after treatment and wash, 22 hours, n = 2, mean ± SD
Procedure: All samples were analyzed using mass spectrometry.

MDM4 = target: T4, MDM4 (Homo sapiens, UniProt O15151, C17S); experiment: Direct FP ternary complex formation, fluorescent MDM4 and beta-catenin; assay type: biochemical; settings: fluorescent p53-binding domain of MDM4
T4 construct: 6×His-yBBr-3C (N, cleaved yes); made in house; host or cells: E. coli BL21 (DE3)
T4 sequence (O15151 14-111 C17S): T1 sequence (O15151 14-111 C17S)

Molecule: CC[C@H](C)[C@H](NC(=O)[C@H](C)NC(=O)[C@H](CCC(N)=O)NC(C)=O)C(=O)N[C@H]1CSCC(=O)Nc2ccc(cc2)NC(=O)CSC[C@@H](C(=O)N[C@@H](CC(C)C)C(=O)N[C@@H](C)C(=O)N[C@@H](CC(=O)O)C(=O)N[C@@H](CC(=O)O)C(=O)N[C@@H](Cc2c[nH]c3ccccc23)C(=O)N[C@H](C(N)=O)[C@@H](C)O)NC(=O)[C@H](CCSC)NC(=O)[C@H](Cc2c[nH]c3ccccc23)NC(=O)[C@H](C)NC(=O)[C@H](C)NC(=O)[C@H](CCC(N)=O)NC(=O)[C@H](Cc2ccccc2)NC1=O [Helicon H331]
promotion of interaction between MDM4 and β-catenin (β-catenin:MDM4 complex): not between MDM4 and β-catenin

Molecule: DPAAADCQWAAFLCRVY
phage screen counts, Target Concentration 10 (PD-L1; PD-L1, target concentration 10): 0
phage screen counts, Target Concentration 30 (PD-L1; PD-L1, target concentration 30): 0
phage screen counts, Target Concentration 100 (PD-L1; PD-L1, target concentration 100): 12
phage screen counts, Target Concentration 300 (PD-L1; PD-L1, target concentration 300): 47
phage screen counts, Target Concentration 1000 (PD-L1; PD-L1, target concentration 1000, first column): 60
phage screen counts, Target Concentration 1000 (PD-L1; PD-L1, target concentration 1000, second column): 62

Molecule: CC[C@H](C)[C@H](NC(=O)[C@H](C)NC(=O)[C@H](CCC(N)=O)NC(=O)[C@H](CCC(N)=O)NC(=O)[C@H](CCC(=O)O)NC(=O)[C@H](CCSC)NC(=O)[C@@H]1CCCN1C(C)=O)C(=O)N[C@H]1CSCC(=O)Nc2ccc(cc2)NC(=O)CSC[C@@H](C(=O)N[C@@H](CC(C)C)C(=O)N[C@@H](C)C(=O)N[C@@H](CC(=O)O)C(=O)N[C@@H](CC(=O)O)C(=O)N[C@@H](Cc2c[nH]c3ccccc23)C(=O)N[C@H](C(N)=O)[C@@H](C)O)NC(=O)[C@H](CCSC)NC(=O)[C@H](Cc2c[nH]c3ccccc23)NC(=O)[C@H](C)NC(=O)[C@H](C)NC(=O)[C@H](CCC(N)=O)NC(=O)[C@H](Cc2ccccc2)NC1=O [Helicon H329] (Ac-PMEQQAICFQAAWMCLADDWT-NH2; linker 8-15 via Phenylene(1,4-NHCOCH2)2)
promotion of interaction between MDM4 and β-catenin (β-catenin:MDM4 complex): not between MDM4 and β-catenin
EC50 (β-catenin:MDM2 complex): 0.01 to 0.1 µM

Molecule: CC(C)C[C@H](NC(=O)[C@H](C)NC(=O)CNC(=O)[C@H](CCCCN)NC(=O)[C@H](CCCNC(=N)N)NC(=O)[C@H](C)NC(=O)[C@H](Cc1ccccc1)NC(=O)[C@H](CCCNC(=N)N)NC(=O)[C@H](CCC(N)=O)NC(=O)c1ccc2c(c1)C(=O)OC21c2ccc(O)cc2Oc2cc(O)ccc21)C(=O)N[C@@H](CCCNC(=N)N)C(=O)N[C@@H](CCC(N)=O)C(=O)N[C@@H](CCCCN)C(=O)N[C@@H](CC(N)=O)C(=O)N[C@H](C(N)=O)C(C)C [FP47831, reference compound] (5FAM-QRFARKGALRQKNV-NH2)
CellTiter-Glo fold change ± SD (Expi293 cells [1]): 1.1 ± 0.02
Helicon in cells ± SD (%) (Expi293 cells [2]): 0.0 ± 0.0%

Molecule: CC(=O)N1CCC[C@H]1C(=O)N[C@@H](Cc1c[nH]c2ccccc12)C(=O)N[C@@H](CCCCN)C(=O)N[C@@H](Cc1ccc(O)cc1)C(=O)N[C@@H](CCC(=O)O)C(=O)N[C@@H](CCC(N)=O)C(=O)N[C@H](C(=O)N[C@H]1CSCC(=O)Nc2ccc(cc2)NC(=O)CSC[C@@H](C(=O)N[C@@H](CC(C)C)C(=O)N[C@@H](CO)C(=O)N[C@@H](CC(=O)O)C(=O)N[C@@H](CC(=O)O)C(=O)N[C@@H](Cc2c[nH]c3ccccc23)C(=O)N[C@@H](CC(=O)O)C(N)=O)NC(=O)[C@H](CCC(N)=O)NC(=O)[C@H](Cc2c[nH]c3ccccc23)NC(=O)[C@H](C)NC(=O)[C@H](C)NC(=O)[C@H](CCC(N)=O)NC(=O)[C@H](Cc2ccc(O)cc2)NC1=O)C(C)C [Helicon H330]
ternary complex formation with MDM4 (MDM4): did not occur

Molecule: CC[C@H](C)[C@H](NC(=O)[C@H](Cc1ccccc1)NC(=O)[C@H](Cc1ccc(O)cc1)NC(=O)[C@H](CC(C)C)NC(=O)[C@@H]1CSCC(=O)Nc2ccc(cc2)NC(=O)CSC[C@H](NC(=O)[C@H](CC(=O)O)NC(=O)[C@H](CCCNC(=N)N)NC(=O)[C@H](C)NC(=O)[C@H](CC(N)=O)NC(=O)[C@H](CCC(=O)O)NC(=O)[C@H](CO)NC(=O)[C@@H]2CCCN2C(C)=O)C(=O)N[C@@H](Cc2ccccc2)C(=O)N[C@@H](Cc2c[nH]c3ccccc23)C(=O)N[C@@H](C)C(=O)N[C@@H](C)C(=O)N[C@@H](Cc2c[nH]c3ccccc23)C(=O)N[C@@H](CC(=O)O)C(=O)N1)C(=O)N[C@@H](Cc1ccc(O)cc1)C(=O)N[C@@H](CCC(N)=O)C(N)=O [Helicon H333]
promotion of interaction between MDM4 and β-catenin (β-catenin:MDM4 complex): not between MDM4 and β-catenin

Molecule: CC[C@H](C)[C@H](NC(=O)[C@H](Cc1ccc(O)cc1)NC(=O)[C@H](CCC(N)=O)NC(=O)[C@]1(C)CCCC=CCCCCCC[C@@](C)(NC(=O)[C@H](Cc2c[nH]cn2)NC(=O)[C@@H](NC(=O)[C@@H](NC(C)=O)[C@@H](C)CC)[C@@H](C)CC)C(=O)N[C@@H](Cc2ccc(O)cc2)C(=O)N[C@@H](CCC(=O)O)C(=O)N[C@@H](C)C(=O)N[C@@H](C)C(=O)N[C@@H](Cc2ccccc2)C(=O)N[C@@H](Cc2ccccc2)C(=O)N1)C(N)=O (single isomer, unassigned) [FP08012, Ac-Ile-Ile-His-R8-Tyr-Glu-Ala-Ala-Phe-Phe-S5-Gln-Tyr-Ile-NH2]
CellTiter-Glo fold change ± SD (Expi293 cells [1]): 1.1 ± 0.04
Helicon in cells ± SD (%) (Expi293 cells [2]): 5.4 ± 0.9%

Second part, the molecule after the results:

Kd (beta-catenin): 0.4 ± 0.05 µM
Molecule: CC(=O)N[C@@H](CC(=O)O)C(=O)N1CCC[C@H]1C(=O)N[C@@H](C)C(=O)N[C@H](C(=O)N[C@@H](C)C(=O)N[C@@H](CCCNC(=N)N)C(=O)N[C@H]1CSCC(=O)Nc2ccc(cc2)NC(=O)CSC[C@@H](C(=O)N[C@@H](CCC(=O)O)C(=O)N[C@@H](CC(C)C)C(=O)N[C@H](C(N)=O)C(C)C)NC(=O)[C@H](Cc2c[nH]cn2)NC(=O)[C@H](CC(C)C)NC(=O)[C@H](C)NC(=O)[C@H](C)NC(=O)[C@H](Cc2c[nH]c3ccccc23)NC(=O)[C@H](CCC(=O)O)NC1=O)[C@@H](C)O [FP49251] (Ac-DPATARCEWAALHCELV-NH2; linker 7-14 via Phenylene(1,4-NHCOCH2)2)

Kd (beta-catenin): 0.3 ± 0.1 µM
Molecule: CC(=O)N[C@@H](CC(=O)O)C(=O)N1CCC[C@H]1C(=O)N[C@@H](C)C(=O)N[C@H](C(=O)N[C@@H](Cc1c[nH]cn1)C(=O)N[C@@H](C)C(=O)N[C@H]1CSCC(=O)Nc2ccc(cc2)NC(=O)CSC[C@@H](C(=O)N[C@@H](CCC(=O)O)C(=O)N[C@@H](CC(C)C)C(=O)N[C@H](C(N)=O)C(C)C)NC(=O)[C@H](Cc2c[nH]cn2)NC(=O)[C@H](CC(C)C)NC(=O)[C@H](C)NC(=O)[C@H](C)NC(=O)[C@H](Cc2c[nH]c3ccccc23)NC(=O)[C@H](CCC(=O)O)NC1=O)[C@@H](C)O [FP49252] (Ac-DPATHACEWAALHCELV-NH2; linker 7-14 via Phenylene(1,4-NHCOCH2)2)

Kd (beta-catenin): 1.4 ± 0.55 µM
Molecule: CC(=O)N[C@@H](CC(=O)O)C(=O)N1CCC[C@H]1C(=O)N[C@@H](C)C(=O)N[C@@H](C)C(=O)N[C@@H](Cc1c[nH]cn1)C(=O)N[C@@H](CCCNC(=N)N)C(=O)N[C@H]1CSCC(=O)Nc2ccc(cc2)NC(=O)CSC[C@@H](C(=O)N[C@@H](CCC(=O)O)C(=O)N[C@@H](CC(C)C)C(=O)N[C@H](C(N)=O)C(C)C)NC(=O)[C@H](Cc2c[nH]cn2)NC(=O)[C@H](CC(C)C)NC(=O)[C@H](C)NC(=O)[C@H](C)NC(=O)[C@H](Cc2c[nH]c3ccccc23)NC(=O)[C@H](CCC(=O)O)NC1=O [FP49250] (Ac-DPAAHRCEWAALHCELV-NH2; linker 7-14 via Phenylene(1,4-NHCOCH2)2)
